Several values for one entry are separate records, joined by “and”; a condition that tells them apart may be missing. Equal entries are not always repeated. Where two headings read alike, the source gives them in different places.
What was measured:
Pyrenophora teres = test: In vivo preventive test on Pyrenophora teres (barley); conditions: 500 ppm of active ingredient, evaluated 7-9 days after inoculation
Protocol: (§1) Solvent: 49 parts by weight of N,N-dimethylformamide Emulsifier: 1 part by weight of alkylaryl polyglycol ether To produce a suitable preparation of active compound, 1 part by weight of active compound is mixed with the stated amounts of solvent and emulsifier, and the concentrate is diluted with water to the desired concentration. To test for preventive activity, young plants are sprayed with the preparation of active compound at the stated rate of application. One day after this treatment, the plants are inoculated with an aqueous spore suspension of Pyrenophora teres.

[1] = tested on: aflatoxines produced by Aspergillus parasiticus; test: microbe, parasite or virus in culture; format: cell-based
Aspergillus parasiticus = test: microbe, parasite or virus in culture; format: cell-based
[2] = log P by HPLC on reversed-phase column (EEC Directive 79/831 Annex V.A8); format: physicochemical
Protocol: In table 1, the log P values were determined in accordance with EEC Directive 79/831 Annex V.A8 by HPLC (High Performance Liquid Chromatography) on a reversed-phase column (C18), using the method described below: Temperature: 40° C.; […]

Alternaria solani = test: In vivo preventive test on Alternaria solani (tomato); conditions: 500 ppm of active ingredient, evaluated 7 days after inoculation
Protocol: as §1, with “Alkylarylpolyglycolether” for “alkylaryl polyglycol ether”, “Alternaria solani.” for “Pyrenophora teres.”

Structure (SMILES) | Efficacy (Pyrenophora teres) [%] | % Inhibition of Aflatoxin at 50 μM [1] [%] | % Inhibition of fungal growth at 50 μM (Aspergillus parasiticus) [%] | logP [2] | Efficacy (Alternaria solani) [%] | logP ([2]; mixture of two or more isomers, one value per isomer, HPLC reversed-phase C18, 40° C., 0.1% aqueous formic acid and acetonitrile) | % Inhibition of fungal growth at 50 μM (Aspergillus parasiticus; 50 µM) [%]
Cn1nc(C(F)F)c(C(=O)NCCOc2c(Cl)cc(Cl)cc2Cl)c1F [Example 202] | 80 | 100 | 84 | 3.60 |  |  | 
CSC1CCCCC1N(C(=O)c1c(C(F)F)nn(C)c1F)C1CC1 (centres unmarked) [Example 351] |  | 100 | 100 | 3.50 |  |  | 
CN(CCCc1ccccc1Cl)C(=O)c1c(C(F)F)nn(C)c1F [Example 142] | 95 | 100 | 84 | 3.06 | 100 |  | 
Cn1nc(C(F)F)c(C(=O)NC(C)(C)CCc2ccc(Cl)c(Cl)c2)c1F [Example 134] |  | 100 | 79 | 4.21 |  |  | 
Cn1nc(C(F)F)c(C(=O)NC(C)(C)CCc2cc(Cl)cc(Cl)c2)c1Cl [Example 125] | 100 | 96 | 76 | 4.64 | 95 |  | 
CC(CCc1ccc(Cl)c(Cl)c1)NC(=O)c1c(C(F)F)nn(C)c1F (racemic) [Example 132] | 100 | 100 | 85 | 3.65 | 100 |  | 
Cc1cccc(OC2CCCC2NC(=O)c2c(C(F)F)nn(C)c2F)c1 (centres unmarked) [Example 259] | 78 | 97 | 82 | 3.52 | 90 |  | 
CC(CCc1ccc(Cl)cc1Cl)NC(=O)c1c(C(F)F)nn(C)c1Cl (centres unmarked) [Example 185] |  | 100 | 89 | 3.99 |  |  | 
CC(CNC(=O)c1c(C(F)F)nn(C)c1F)Cc1cc(Cl)ccc1Cl (centres unmarked) [Example 165] | 100 | 99 | 83 | 3.65 | 90 |  | 
Cc1ccsc1CCC(C)NC(=O)c1c(C(F)F)nn(C)c1Cl (centres unmarked) [Example 76] |  | 100 | 83 | 3.17 |  |  | 
CCC(C)C(C)N(C(=O)c1c(C(F)F)nn(C)c1Cl)C1CC1 (centres unmarked) [Example 303] | 100 | 100 | 90 | 3.52 | 80 |  | 
CC(CCc1ccccc1Cl)NC(=O)c1c(C(F)F)nn(C)c1Cl (racemic) [Example 143] | 100 | 96 | 73 | 3.41 | 100 |  | 
CC(COc1cc(Cl)cc(Cl)c1)NC(=O)c1c(C(F)F)nn(C)c1F (racemic) [Example 121] | 100 | 100 | 98 | 3.72 | 90 |  | 
CC1CCCC(Cc2cccc(Cl)c2)C1NC(=O)c1c(C(F)F)nn(C)c1F (mixture of isomers) [Example 255] |  | 100 | 90 |  |  | 4.31 and 4.44 and 4.54 | 
CCC(COc1cccc2ccccc12)NC(=O)c1c(C(F)F)nn(C)c1F (centres unmarked) [Example 222] | 90 | 91 | 78 | 3.71 | 90 |  | 
CC(CCc1cc(Cl)cc(Cl)c1)NC(=O)c1c(C(F)F)nn(C)c1Cl (centres unmarked) [Example 119] |  | 95 | 77 | 4.01 |  |  | 

Structure (SMILES) | Efficacy (Pyrenophora teres) [%] | % Inhibition of Aflatoxin at 50 μM [1] [%] | % Inhibition of fungal growth at 50 μM (Aspergillus parasiticus) [%] | logP [2] | Efficacy (Alternaria solani) [%] | logP ([2]; mixture of two or more isomers, one value per isomer, HPLC reversed-phase C18, 40° C., 0.1% aqueous formic acid and acetonitrile) | % Inhibition of fungal growth at 50 μM (Aspergillus parasiticus; 50 µM) [%]
Cn1nc(C(F)F)c(C(=O)NC(C)(C)CCc2cc(Cl)ccc2Cl)c1F [Example 178] | 100 | 100 | 88 | 4.26 | 95 |  | 
CC(COc1cc(Cl)ccc1Cl)NC(=O)c1c(C(F)F)nn(C)c1Cl (centres unmarked) [Example 174] | 95 | 85 | 67 | 3.69 | 100 |  | 
CC(C)CC(C)C1CCCC1NC(=O)c1c(C(F)F)nn(C)c1F (single isomer, unassigned) [Example 317] |  | 100 |  | 4.22 isomer B |  |  | 90
Cn1nc(C(F)F)c(C(=O)NCCOc2cc(Cl)ccc2Cl)c1F [Example 169] |  | 100 | 84 | 3.11 | 90 |  | 
CC(COc1cc(Cl)cc(Cl)c1)NC(=O)c1c(C(F)F)nn(C)c1Cl (racemic) [Example 122] | 100 | 100 | 91 | 3.92 | 100 |  | 
CCC1CCCCC1CNC(=O)c1c(C(F)F)nn(C)c1F (centres unmarked) [Example 364] | 80 | 99 | 81 | 3.49 | 95 |  | 
CN(CCN(C)c1cccc(Cl)c1)C(=O)c1c(C(F)F)nn(C)c1Cl [Example 81] |  | 97 | 80 | 3.19 | 90 |  | 
CCC(CCc1sccc1C)NC(=O)c1c(C(F)F)nn(C)c1F (centres unmarked) [Example 79] |  | 100 | 93 | 3.31 |  |  | 
CSC1CCCCC1N(C(=O)c1c(C(F)F)nn(C)c1Cl)C1CC1 (centres unmarked) [Example 352] |  | 99 | 85 | 3.73 |  |  | 
Cn1nc(C(F)F)c(C(=O)NCCOc2cc(Cl)cc(Cl)c2)c1F [Example 117] | 78 | 99 | 81 | 3.35 |  |  | 
CC(CCc1cc(Cl)cc(Cl)c1)NC(=O)c1c(C(F)F)nn(C)c1F (centres unmarked) [Example 120] |  | 100 | 100 | 3.83 |  |  | 
CCC(CCc1sccc1C)NC(=O)c1c(C(F)F)nn(C)c1Cl (centres unmarked) [Example 78] |  | 83 | 65 | 3.48 |  |  | 
CN(CCN(C)c1cccc(Cl)c1)C(=O)c1c(C(F)F)nn(C)c1F [Example 82] |  | 100 | 100 | 3.02 | 95 |  | 
CN(C(=O)c1c(C(F)F)nn(C)c1F)C(CSCc1ccccc1)C1CC1 (centres unmarked) [Example 225] |  | 100 | 85 | 3.46 | 95 |  | 
Cc1ccsc1CCC(C)NC(=O)c1c(C(F)F)nn(C)c1F (centres unmarked) [Example 77] |  | 100 | 98 | 3.02 |  |  | 

Reference: US8999956B2, “N-[(het)arylalkyl)] pyrazole(thio)carboxamides and their heterosubstituted analogues” (Bayer Intellectual Property GmbH, priority 2010, dated 2015)
